Results: patent US20100324017A1, “ACYLGUANIDINE DERIVATIVE” (priority 2007, published 2010)

Test system: PCP-induced prepulse inhibition (PPI) disorder
Test: Disorder of PCP-induced prepulse inhibition (PPI) in a rat
Assay type: in vivo
Conditions: dose 10 mg/kg, PCP 1 mg/kg s.c., % PPI
Experimental: An Improvement Effect for a Disorder of PCP-Induced Prepulse Inhibition (PPI) in a Rat
A startle amplitude occurs in humans to which an sound stimulus has been given, but in healthy human, this startle amplitude is inhibited by the giving of a weak sound stimulus that precedes the sound stimulus. For a patient with schizophrenia, the inhibitory function similarly declined. It is known that when a rat is administered with PCP (phencyclidine), there is a symptom similar to the negative symptom of schizophrenia in humans. Using this model, the improvement effect of the compound (I) for the information processing disorder included in cognitive impairment of schizophrenia was evaluated.
Species: Male Wistar rat/number of the animals (number of animals per group): 12 animals per group
Startle amplitude measuring device for small animals: an SR-LAB ABS system (manufactured by San Diego Instruments)
An animal holder, to which a Plexiglas-made cylinder for animal storage having a diameter of 8.2 cm was attached, was positioned in the upper part of a Plexiglas-made frame in a measurement box. In the measurement box, a sound-insulating treatment and ventilation (FAN) were carried out. Sound was administered by a speaker attached to the 24 cm upper part of the cylinder. The movement of the animals in the cylinder was detected by a transducer attached in the lower part of the frame and recorded by a microcomputer via an interface.
The experiment was initiated after the animals were put into the chamber for measurement and had spent 10 minutes adapting to the measurement environment. Basically, at 35 minutes after the compound to be tested was orally administered, 1 mg/kg of PCP was subcutaneously administered (1 ml/kg). Five minutes later, the rats were put into a chamber for measurement, allowed to adapt for 10 minutes, and the measurement was then initiated. A white noise of 65 dB (for all frequencies, a disordered noise having a constant energy per unit band) used as a background noise was always played through the break periods and the sessions. The three types of trials as shown below were carried out in a random order 10 times for each type with 30 times in total. Each trial was carried out at a pseudo-random interval of 20 to 60 seconds with an average of 40 seconds. A pulse was defined as a white noise of 120 dB, 20 msec, and a prepulse was defined as a white noise of 70, 80 dB, 20 msec.
The startle amplitude of the animal was measured for 100 msec from the initiation of the pulse, and the maximum value was taken as a “maximum startle amplitude (Vmax))”. The “maximum startle amplitude” for the ten times for each of the three types of trials were averaged, and taken as a “startle amplitude (simply referred to as SA)” under the stimulation condition.
The % prepulse inhibition (% PPI) was calculated in the following equation in the PP80 & P trial of 3) above.
% Prepulse inhibition (% PPI)=(Startle amplitude at P-alone trial (SA)−Startle amplitude (SA) at a PP80 & P trial)/Startle amplitude at P alone trial×100
The measured value was expressed as an average value (mean±SE). First, the startle amplitudes (SA) were statistically analyzed. […] For the measured data of % PPI, the normal group and the control group (the group administered with PCP) were compared by a Student t-test, and for the control group and the group administered with the compound to be tested were compared using a Dunnett evaluation. […] The effect of the compound to be tested was assessed with % PPI.

Structure (SMILES): OCCOCCN1CCN(C2=Nc3ccccc3Sc3ccccc32)CC1 [quetiapine, reference compound]
- improvement of the PCP-induced PPI: significantly improved
